“And” between values parts separate entries of the source, which are not always exact repeats. Equal entries are not always repeated.
Columns and labels:
[1] = target: T1, VTC1ΔC (Arabidopsis thaliana, UniProt O22287); assay: GMPase assay, malachite green phosphate release after pyrophosphatase; format: biochemical; conditions: 0.2 mM Man-1-P, 0.2 mM GTP, 1 mM MgCl2, 1 mM DTT, 50 mM Tris-HCl pH 7.5, 37 °C, 0.2 μM enzyme
T1 construct: gene CYT1; truncation lacking the C-terminal 139 residues (LβH domain region removed); catalytic domain; recombinant, purified as full-length VTC1

[2] = target: T2, VTC1 (Arabidopsis thaliana, UniProt O22287); assay: X-ray crystal structure, […] Å; format: binding
T2 construct: gene CYT1; full-length recombinant, 41 kDa; dimer, tetramer and aggregate in SEC
T2 sequence (O22287 1-361): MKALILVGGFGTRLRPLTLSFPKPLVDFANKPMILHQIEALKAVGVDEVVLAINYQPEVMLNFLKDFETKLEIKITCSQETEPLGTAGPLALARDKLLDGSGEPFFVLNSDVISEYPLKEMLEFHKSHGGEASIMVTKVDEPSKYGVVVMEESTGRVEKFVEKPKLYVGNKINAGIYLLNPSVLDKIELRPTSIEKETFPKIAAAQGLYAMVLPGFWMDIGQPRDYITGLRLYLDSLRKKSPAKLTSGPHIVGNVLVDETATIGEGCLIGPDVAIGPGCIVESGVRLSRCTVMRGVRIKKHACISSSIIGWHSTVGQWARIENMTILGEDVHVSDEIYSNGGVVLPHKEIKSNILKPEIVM

[3] = target: the molecule itself; assay: crystal structure; product-bound VTC1 (GDP-Man, PPi, citrate), 3.0 Å, space group R32, two dimers in the asymmetric unit, threefold symmetry
[4] = target: the molecule itself; assay: SEC; HiLoad 16/60 Superdex 200 column; purified recombinant VTC1; three peaks compared with protein standards

Q: How did the “GMPase assay, malachite green phosphate release after pyrophosphatase” value [1] turn out when O=P(O)(O)O[C@H]1O[C@H](CO)[C@@H](O)[C@H](O)[C@@H]1O [D-mannose-1-phosphate] was run?
A: VTC1ΔC retained, but only ca. one third of the GMPase activity

Q: Nc1nc2c(ncn2[C@@H]2O[C@H](COP(=O)(O)OP(=O)(O)O[C@H]3O[C@H](CO)[C@@H](O)[C@H](O)[C@@H]3O)[C@@H](O)[C@H]2O)c(=O)[nH]1 [GDP-D-mannose] was tested. Which “X-ray crystal structure, 3.0 Å” value ([2]; active site of catalytic domain, bound in middle protomer, citrate also bound) did it give?
A: The product GDP-Man binds at the edge of the central β-sheet (Figure 4C).

Q: Nc1nc2c(ncn2[C@@H]2O[C@H](COP(=O)(O)OP(=O)(O)OP(=O)(O)O)[C@@H](O)[C@H]2O)c(=O)[nH]1 [GTP] was tested. Which “GMPase assay, malachite green phosphate release after pyrophosphatase” value [1] did it give?
A: VTC1ΔC retained, but only ca. one third of the GMPase activity

Q: O=P(O)(O)OP(=O)(O)O [inorganic pyrophosphate] was tested. Which “X-ray crystal structure, 3.0 Å” value ([2]; catalytic domain, β1–η1 loop, bound in inner and outer protomers, same site as citrate) did it give?
A: the inner and outer protomers each bind a PPi

B1: Arabidopsis thaliana GDP-D-mannose pyrophosphorylase VITAMIN C … 1 (enzyme, UniProt O22287 1-361, looked up)
chain: MKALILVGGFGTRLRPLTLSFPKPLVDFANKPMILHQIEALKAVGVDEVVLAINYQPEVMLNFLKDFETKLEIKITCSQETEPLGTAGPLALARDKLLDGSGEPFFVLNSDVISEYPLKEMLEFHKSHGGEASIMVTKVDEPSKYGVVVMEESTGRVEKFVEKPKLYVGNKINAGIYLLNPSVLDKIELRPTSIEKETFPKIAAAQGLYAMVLPGFWMDIGQPRDYITGLRLYLDSLRKKSPAKLTSGPHIVGNVLVDETATIGEGCLIGPDVAIGPGCIVESGVRLSRCTVMRGVRIKKHACISSSIIGWHSTVGQWARIENMTILGEDVHVSDEIYSNGGVVLPHKEIKSNILKPEIVM
notes: VTC1 (GDP-D-mannose pyrophosphorylase), Arabidopsis thaliana, full-length; recombinant protein stated to have a molecular weight of 41 kDa; also called VTC1; GMPase; source: recombinant, purified (SEC on HiLoad 16/60 Superdex 200); production described previously (Zhao and Liu, 2016)
Q: What does the source list for B1?
A: stoichiometry N [3]: 12; stoichiometry N [4]: 2 and 4

— paper PMC9168903, “Crystal Structures of Arabidopsis thaliana GDP-D-Mannose Pyrophosphorylase VITAMIN C DEFECTIVE 1” (Frontiers in Plant Science, 2022)
